Test systems include T-47D breast; SNB-19 CNS; SF-295 CNS; OVCAR-5 ovarian; MCF7 breast; IGROV1 ovarian; A549 NSCLC; SN12C renal; SNB-75 CNS; TK-10 renal.
Common to all, as to experiment: NCI anticancer screen, dose series, 48 h

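These data come from cells grown in 96-well plates and exposed to compound for 48 hours at five concentrations. The concentration for 50% growth inhibition is given as GI50. TGI: concentration producing complete growth inhibition.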

Turning to `c1ccc(C2C3=C(CCCC3)Nc3nnnn32)cc1` (configuration not stated), the TGI in the test on T-47D breast, in the test on SNB-19 CNS, in the test with SF-295 CNS, in the test on OVCAR-5 ovarian, in the test on MCF7 breast and in the test with IGROV1 ovarian was greater than 100 µM throughout. Besides, the TGI with A549 NSCLC and in the test on SN12C renal was greater than 100 µM each time.

Turning to `CN(C)CCSc1nccc(-c2ccc(-c3ccnc(SCCN(C)C)n3)s2)n1`, the TGI is 38.8 µM in the test on SNB-19 CNS; 26 µM in the test with SF-295 CNS; 29.4 µM in the test on OVCAR-5 ovarian; 16.9 µM in the test on MCF7 breast; 28.8 µM in the test with IGROV1 ovarian; 28.2 µM with SNB-75 CNS. For the same compound, the TGI in the test on A549 NSCLC was 31.7 µM; with SN12C renal it was 21 µM.

On to `COc1ccc(C2=C(N)c3cc(OC)ccc3C2=O)cc1`, for which the TGI in the test on T-47D breast, in the test on SNB-19 CNS, in the test with SF-295 CNS, with OVCAR-5 ovarian, in the test on MCF7 breast and with IGROV1 ovarian was greater than 100 µM throughout. For the same compound, the TGI with SNB-75 CNS, with A549 NSCLC and in the test on SN12C renal was greater than 100 µM throughout.

Regarding `O=C(c1cccs1)N(C(=O)N1CCCCC1)c1ccccc1`, the TGI with T-47D breast is greater than 100 µM; in the test on SNB-19 CNS, greater than 100 µM; in the test on SF-295 CNS, greater than 100 µM; in the test on MCF7 breast, greater than 100 µM; in the test on IGROV1 ovarian it was greater than 100 µM; in the test on SNB-75 CNS, 88.7 µM. The TGI with TK-10 renal and with SN12C renal was greater than 100 µM throughout.

Regarding `O=c1cc(-c2ccccc2)[nH]c2c(F)ccc(F)c12`, the TGI is greater than 100 µM with SF-295 CNS; greater than 100 µM in the test on OVCAR-5 ovarian; greater than 100 µM with IGROV1 ovarian; 59 µM in the test on SNB-75 CNS; greater than 100 µM in the test on A549 NSCLC; greater than 100 µM in the test with TK-10 renal. Also, the TGI with SN12C renal is greater than 100 µM.

As to `COc1ccc(-c2nc3ncccn3c2-c2ccc(S(C)(=O)=O)cc2)cc1`, the TGI is greater than 100 µM with SNB-19 CNS; greater than 100 µM in the test with SF-295 CNS; greater than 100 µM with OVCAR-5 ovarian; 81.8 µM with MCF7 breast; greater than 100 µM in the test on IGROV1 ovarian; greater than 100 µM in the test with SNB-75 CNS. For the same compound, the TGI in the test with A549 NSCLC and in the test on SN12C renal was greater than 100 µM throughout.

On to `CO/C=C(/C(=O)OC)c1ccccc1[C@H]1C[C@@H]1c1ccccc1`, for which the TGI with T-47D breast is 63.1 µM; in the test on SNB-19 CNS, greater than 100 µM; with SF-295 CNS, 98.2 µM; in the test on OVCAR-5 ovarian it was greater than 100 µM; with MCF7 breast, greater than 100 µM; with IGROV1 ovarian it was 58.1 µM. Also, the TGI is 83.8 µM in the test on A549 NSCLC, greater than 100 µM with TK-10 renal and 90.3 µM in the test with SN12C renal.

`COc1ccc(OC)c([N+](=O)[O-])c1-c1nc2sc(C)cn2c1/C=N/N=C(N)N`: the TGI with SF-295 CNS was 57.1 µM; in the test with OVCAR-5 ovarian, greater than 100 µM; in the test on MCF7 breast it was greater than 100 µM; in the test on IGROV1 ovarian it was 33 µM; with A549 NSCLC it was greater than 100 µM; in the test with TK-10 renal it was 43.3 µM. In the test with SN12C renal, this compound gave a TGI of 90.1 µM.

Take `NS(=O)(=O)c1ccc(NS(=O)(=O)c2ccc(NC(=O)N(c3ccccc3)c3ccccc3)cc2)cc1`: the TGI in the test with T-47D breast, in the test on SNB-19 CNS, in the test with SF-295 CNS, in the test on OVCAR-5 ovarian, in the test on MCF7 breast and in the test on IGROV1 ovarian was greater than 100 µM each time. Further, the TGI with A549 NSCLC, with TK-10 renal and in the test on SN12C renal was greater than 100 µM in each case.

On to `[O-][n+]1cc(SCc2ccccc2)ncc1SCc1ccccc1`, for which the TGI in the test on T-47D breast, in the test with SF-295 CNS, in the test with OVCAR-5 ovarian, in the test with MCF7 breast, in the test on IGROV1 ovarian and in the test on SNB-75 CNS was greater than 10 µM in each case. Further, the TGI with A549 NSCLC, with TK-10 renal and with SN12C renal was greater than 10 µM throughout.

Take `CC(=O)O[C@H]1CC[C@]2(C=O)[C@H]3CC[C@]4(C)[C@@H](C5=CC(=O)OC5)CC[C@]4(O)[C@@H]3CC[C@]2(O)C1`: the TGI turned out to be 2.68 µM with T-47D breast; 2.24 µM in the test with SNB-19 CNS; 0.853 µM in the test on SF-295 CNS; 1.87 µM with OVCAR-5 ovarian; 3.99 µM in the test on IGROV1 ovarian; 0.253 µM in the test on A549 NSCLC. Besides, the TGI with TK-10 renal is 0.93 µM; with SN12C renal it was 1.53 µM.

`CCC(C)Cn1c(C)nc2c1C(=O)c1ccccc1C2=O` (configuration not stated): the TGI with SNB-19 CNS, in the test with SF-295 CNS, with IGROV1 ovarian, with SNB-75 CNS, with A549 NSCLC and in the test with TK-10 renal was greater than 100 µM in each case. The TGI in the test with SN12C renal is greater than 100 µM.

With `CC(NC1=NCCO1)c1ccco1` (configuration not stated), the TGI in the test on T-47D breast, in the test on SNB-19 CNS, in the test with SF-295 CNS, with OVCAR-5 ovarian, in the test on MCF7 breast and with IGROV1 ovarian was greater than 100 µM each time. Moreover, the TGI in the test with A549 NSCLC, in the test on TK-10 renal and in the test with SN12C renal was greater than 100 µM throughout.

As for `C(=N\Nc1nnc(-c2nnc(N/N=C/c3ccccc3)o2)o1)/c1ccccc1`, the TGI with T-47D breast, in the test with SNB-19 CNS, with SF-295 CNS, in the test on OVCAR-5 ovarian, in the test with MCF7 breast and in the test on IGROV1 ovarian was greater than 10 µM each time. The TGI in the test on A549 NSCLC, with TK-10 renal and with SN12C renal was greater than 10 µM in each case.

With `COc1ccc(Nc2ccnc3cc(Cl)ccc23)cc1CN(CCCl)CCCl`, the GI50 was 2.27 µM in the test on T-47D breast; 1.5 µM with SNB-19 CNS; 0.804 µM with SF-295 CNS; 2.84 µM with OVCAR-5 ovarian; 0.633 µM in the test on MCF7 breast; 1.31 µM with IGROV1 ovarian. For the same compound, the values for the GI50 in the test on A549 NSCLC, in the test on TK-10 renal and with SN12C renal were 1.69 µM, 2.02 µM and 1.24 µM, respectively. The TGI was greater than 100 µM in the test with T-47D breast; 3.31 µM in the test with SF-295 CNS; 5.94 µM with OVCAR-5 ovarian; 6.42 µM with MCF7 breast; 4.19 µM in the test on IGROV1 ovarian; greater than 28.5 µM with A549 NSCLC. Further, the TGI was greater than 20.7 µM in the test on TK-10 renal and 6 µM in the test on SN12C renal.

For the origin of these results see PubChem BioAssay (NCI).
